Laboratory results published in PubChem BioAssay (NCI).
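Cells were grown in 96-well plates and exposed to each compound for 48 hours at five concentrations; endpoints were interpolated linearly between bracketing concentrations, or set to the highest concentration if not reached. At the GI50, growth is halved. At the TGI there is no net growth.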 Active and inactive are the calls of the source. Rule as the data show it: active = GI50 below about 0.43 µM; inactive = the rest.

What was measured:
Assay in all cases: NCI-60 cell line screen, 48 h
[1] = system: 786-0 renal
[2] = system: A498 renal
[3] = system: A549 NSCLC
[4] = system: ACHN renal
[5] = system: CAKI-1 renal
[6] = system: CCRF-CEM leukemia
[7] = system: COLO 205 colon
[8] = system: DLD-1 colon
[9] = system: DMS 114 small cell lung
[10] = system: DMS 273 small cell lung
[11] = system: EKVX NSCLC
[12] = system: HCC-2998 colon
[13] = system: HCT-116 colon
[14] = system: HCT-15 colon
[15] = system: HL-60(TB) leukemia
[16] = system: HOP-18 NSCLC
[17] = system: HOP-62 NSCLC
[18] = system: HT29 colon
[19] = system: IGROV1 ovarian
[20] = system: K-562 leukemia
[21] = system: KM12 colon
[22] = system: KM20L2 colon
[23] = system: LOX IMVI melanoma
[24] = system: LXFL 529 NSCLC
[25] = system: M14 melanoma
[26] = system: M19-MEL melanoma
[27] = system: MALME-3M melanoma
[28] = system: MOLT-4 leukemia
[29] = system: NCI-H226 lung
[30] = system: NCI-H23 lung
[31] = system: NCI-H460 lung
[32] = system: NCI-H522 lung
[33] = system: OVCAR-3 ovarian
[34] = system: OVCAR-4 ovarian
[35] = system: OVCAR-5 ovarian
[36] = system: OVCAR-8 ovarian
[37] = system: RXF 393 renal
[38] = system: RXF-631 renal
[39] = system: SF-268 CNS
[40] = system: SF-295 CNS
[41] = system: SK-MEL-2 melanoma
[42] = system: SK-MEL-28 melanoma
[43] = system: SK-MEL-5 melanoma
[44] = system: SK-OV-3 ovarian
[45] = system: SN12C renal
[46] = system: SNB-19 CNS
[47] = system: SNB-75 CNS
[48] = system: SR leukemia
[49] = system: SW-620 colon
[50] = system: TK-10 renal
[51] = system: U251 CNS
[52] = system: UACC-257 melanoma
[53] = system: UACC-62 melanoma
[54] = system: UO-31 renal
[55] = system: HOP-92 NSCLC
[56] = system: RPMI-8226 leukemia
[57] = system: SF-539 CNS
[58] = system: SNB-78 CNS
[59] = system: XF 498 CNS

Structure (SMILES): Cc1ccc2c(c1)C(c1cccc3ccccc13)OC2=O (centres undefined)
- TGI [1]: > 100 µM
- TGI [2]: 83.9 µM
- TGI [3]: > 100 µM
- TGI [4]: > 100 µM
- TGI [5]: > 100 µM
- TGI [6]: > 100 µM
- TGI [7]: > 100 µM
- TGI [8]: > 100 µM
- TGI [9]: > 100 µM
- TGI [10]: > 100 µM
- TGI [11]: > 100 µM
- TGI [12]: > 100 µM
- TGI [13]: > 100 µM
- TGI [14]: > 100 µM
- TGI [15]: > 100 µM
- TGI [16]: > 100 µM
- TGI [17]: 81.7 µM
- TGI [18]: > 100 µM
- TGI [19]: > 100 µM
- TGI [20]: > 100 µM
- TGI [21]: > 100 µM
- TGI [22]: > 100 µM
- TGI [23]: > 100 µM
- TGI [24]: > 100 µM
- TGI [25]: > 100 µM
- TGI [26]: > 100 µM
- TGI [27]: > 100 µM
- TGI [28]: > 100 µM
- TGI [29]: > 100 µM
- TGI [30]: > 100 µM
- TGI [31]: > 100 µM
- TGI [32]: > 100 µM
- TGI [33]: > 100 µM
- TGI [34]: > 100 µM
- TGI [35]: > 100 µM
- TGI [36]: > 100 µM
- TGI [37]: 80.4 µM
- TGI [38]: > 100 µM
- TGI [39]: > 100 µM
- TGI [40]: > 100 µM
- TGI [41]: > 100 µM
- TGI [42]: > 100 µM
- TGI [43]: > 100 µM
- TGI [44]: > 100 µM
- TGI [45]: > 100 µM
- TGI [46]: > 100 µM
- TGI [47]: > 100 µM
- TGI [48]: > 100 µM
- TGI [49]: > 100 µM
- TGI [50]: > 100 µM
- TGI [51]: > 100 µM
- TGI [52]: > 100 µM
- TGI [53]: > 100 µM
- TGI [54]: > 100 µM

Structure (SMILES): C=C1C(=O)OC2/C=C(\C=O)CC/C=C(\C)C(O)C[C@@H]12 (some centres undefined)
- TGI [1]: 11.6 µM
- TGI [2]: 22.1 µM
- TGI [3]: 33.9 µM
- TGI [4]: 19.9 µM
- TGI [6]: > 26.5 µM
- TGI [7]: 15.3 µM
- TGI [8]: 8.93 µM
- TGI [9]: 26.6 µM
- TGI [10]: 15.7 µM
- TGI [11]: 29.1 µM
- TGI [12]: 31.7 µM
- TGI [13]: 3.46 µM
- TGI [14]: 14.9 µM
- TGI [15]: > 21.4 µM
- TGI [16]: 31.2 µM
- TGI [17]: 61.3 µM
- TGI [55]: 17.2 µM
- TGI [18]: 11.6 µM
- TGI [19]: 32.3 µM
- TGI [20]: > 36.1 µM
- TGI [21]: 18.5 µM
- TGI [22]: 22.4 µM
- TGI [23]: 18.5 µM
- TGI [24]: 13.6 µM
- TGI [25]: 12.4 µM
- TGI [26]: 19.2 µM
- TGI [27]: 22.2 µM
- TGI [28]: 21.4 µM
- TGI [29]: 43.9 µM
- TGI [30]: 17.7 µM
- TGI [31]: 27.4 µM
- TGI [32]: 3.41 µM
- TGI [33]: 14.5 µM
- TGI [34]: 27.5 µM
- TGI [35]: 38.2 µM
- TGI [36]: 12 µM
- TGI [56]: 8.69 µM
- TGI [37]: 7.46 µM
- TGI [39]: 14.7 µM
- TGI [40]: 28.3 µM
- TGI [57]: 27.2 µM
- TGI [41]: 25 µM
- TGI [42]: 15.7 µM
- TGI [43]: 22.4 µM
- TGI [44]: 52.5 µM
- TGI [45]: 14.5 µM
- TGI [46]: 29.1 µM
- TGI [47]: 29 µM
- TGI [58]: 18.8 µM
- TGI [48]: > 27.6 µM
- TGI [49]: 10.9 µM
- TGI [50]: 24.7 µM
- TGI [51]: 35.4 µM
- TGI [52]: 18 µM
- TGI [53]: 18.5 µM
- TGI [54]: 26.8 µM
- TGI [59]: 16.1 µM

Structure (SMILES): O=[N+]([O-])c1ccc2c(c1)[O][Sn][O]2
- GI50 [1]: 139 µg/mL
- TGI [1]: > 150 µg/mL
- GI50 [2]: > 150 µg/mL
- TGI [2]: > 150 µg/mL
- GI50 [3]: > 150 µg/mL
- TGI [3]: > 150 µg/mL
- GI50 [4]: 139 µg/mL
- TGI [4]: > 150 µg/mL
- GI50 [5]: 104 µg/mL
- TGI [5]: > 150 µg/mL
- GI50 [6]: 17.6 µg/mL
- TGI [6]: > 150 µg/mL
- GI50 [7]: 62.5 µg/mL
- TGI [7]: > 150 µg/mL
- GI50 [9]: 66.2 µg/mL
- TGI [9]: > 150 µg/mL
- GI50 [10]: 18.8 µg/mL
- TGI [10]: > 150 µg/mL
- GI50 [11]: > 150 µg/mL
- TGI [11]: > 150 µg/mL
- GI50 [12]: > 150 µg/mL
- TGI [12]: > 150 µg/mL
- GI50 [13]: 45.3 µg/mL
- TGI [13]: > 150 µg/mL
- GI50 [14]: 16.8 µg/mL
- TGI [14]: > 150 µg/mL
- GI50 [15]: 36.5 µg/mL
- TGI [15]: > 150 µg/mL
- outcome [16]: inactive
- GI50 [17]: > 150 µg/mL
- TGI [17]: > 150 µg/mL
- GI50 [55]: 45.3 µg/mL
- TGI [55]: 88.3 µg/mL
- GI50 [18]: 86 µg/mL
- TGI [18]: > 150 µg/mL
- GI50 [19]: 115 µg/mL
- TGI [19]: > 150 µg/mL
- GI50 [20]: 40.2 µg/mL
- TGI [20]: > 150 µg/mL
- GI50 [21]: 37.6 µg/mL
- TGI [21]: > 150 µg/mL
- outcome [22]: inactive
- GI50 [23]: 66.5 µg/mL
- TGI [23]: > 150 µg/mL
- outcome [24]: inactive
- GI50 [25]: 23.8 µg/mL
- TGI [25]: 78.2 µg/mL
- GI50 [26]: 36.9 µg/mL
- TGI [26]: > 150 µg/mL
- GI50 [27]: 149 µg/mL
- TGI [27]: > 150 µg/mL
- GI50 [28]: 33 µg/mL
- TGI [28]: > 150 µg/mL
- GI50 [29]: 29 µg/mL
- TGI [29]: > 150 µg/mL
- GI50 [30]: 15.3 µg/mL
- TGI [30]: 143 µg/mL
- GI50 [31]: 69.5 µg/mL
- TGI [31]: > 150 µg/mL
- GI50 [32]: 4.23 µg/mL
- TGI [32]: 69.5 µg/mL
- GI50 [33]: 48.1 µg/mL
- TGI [33]: > 150 µg/mL
- GI50 [34]: > 150 µg/mL
- TGI [34]: > 150 µg/mL
- GI50 [35]: > 150 µg/mL
- TGI [35]: > 150 µg/mL
- GI50 [36]: 65.7 µg/mL
- TGI [36]: > 150 µg/mL
- GI50 [56]: 17.8 µg/mL
- TGI [56]: > 150 µg/mL
- GI50 [37]: 8.22 µg/mL
- TGI [37]: > 150 µg/mL
- GI50 [39]: 47.6 µg/mL
- TGI [39]: > 150 µg/mL
- GI50 [40]: > 150 µg/mL
- TGI [40]: > 150 µg/mL
- GI50 [57]: 50.1 µg/mL
- TGI [57]: > 150 µg/mL
- GI50 [41]: > 150 µg/mL
- TGI [41]: > 150 µg/mL
- GI50 [42]: 29.4 µg/mL
- TGI [42]: > 150 µg/mL
- GI50 [43]: 75.8 µg/mL
- TGI [43]: > 150 µg/mL
- GI50 [44]: > 150 µg/mL
- TGI [44]: > 150 µg/mL
- GI50 [45]: > 150 µg/mL
- TGI [45]: > 150 µg/mL
- GI50 [46]: 55.2 µg/mL
- TGI [46]: > 150 µg/mL
- GI50 [47]: > 150 µg/mL
- TGI [47]: > 150 µg/mL
- GI50 [58]: 124 µg/mL
- TGI [58]: > 150 µg/mL
- GI50 [49]: 114 µg/mL
- TGI [49]: > 150 µg/mL
- GI50 [50]: > 150 µg/mL
- TGI [50]: > 150 µg/mL
- GI50 [51]: > 150 µg/mL
- TGI [51]: > 150 µg/mL
- GI50 [52]: 40.5 µg/mL
- TGI [52]: > 150 µg/mL
- GI50 [53]: 8.32 µg/mL
- TGI [53]: > 150 µg/mL
- GI50 [54]: 125 µg/mL
- TGI [54]: > 150 µg/mL
- outcome [59]: inactive
